Assay results as given in patent publication US11707462B2, “Checkpoint kinase 1 (CHK1) inhibitors and uses thereof” (Boundless Bio, Inc., priority 2021, dated 2023).

Tests used:
[1] = biological target: T1, Full-length human Chk1 protein (Homo sapiens, UniProt O14757); assay: Kinase HTRF biochemical assay (HTRF KinEASE), Chk1 enzyme activity; conditions: full-length human Chk1, ATP 1 mM, 60 minutes at room temperature
T1 construct: purchased Carna Biosciences, Inc. 02-117
T1 sequence (O14757 1-476): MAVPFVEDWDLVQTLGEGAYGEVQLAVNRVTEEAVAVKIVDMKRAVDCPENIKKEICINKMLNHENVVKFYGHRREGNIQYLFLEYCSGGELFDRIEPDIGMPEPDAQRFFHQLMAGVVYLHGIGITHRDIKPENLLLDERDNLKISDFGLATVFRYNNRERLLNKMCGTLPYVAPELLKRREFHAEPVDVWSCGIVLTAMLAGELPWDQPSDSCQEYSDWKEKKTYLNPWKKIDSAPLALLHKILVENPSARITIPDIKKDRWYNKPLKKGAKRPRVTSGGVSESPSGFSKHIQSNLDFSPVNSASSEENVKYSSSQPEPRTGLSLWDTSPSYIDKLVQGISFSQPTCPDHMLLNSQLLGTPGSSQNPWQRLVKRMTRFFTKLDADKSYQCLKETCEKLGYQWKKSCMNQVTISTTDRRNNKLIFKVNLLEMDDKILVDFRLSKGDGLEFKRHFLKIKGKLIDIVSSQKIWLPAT
Method: Example A: Kinase HTRF Biochemical Assay
Chk1 enzyme activity was measured using an HTRF KinEASE assay (Cisbio, catalog no. 62ST1PEC). Full-length human Chk1 protein (GenBank accession number NP_001265.1) was obtained from Carna Biosciences, Inc. (Kobe, Japan, catalog no. 02-117). The enzyme reaction was carried out in assay buffer containing (final concentrations): Chk1 enzyme (0.012 ng/μL), MgCl2 (5 mM) and DTT (1 mM). To determine compound dose response, DMSO stock solutions were serially diluted in a 10-point concentration series in duplicate. Compound solution (50 nL) was added to 384-well assay plates (Greiner, catalog no. 784075). To each well containing compound solution was added assay buffer solution (5 μL). Plates were centrifuged at 1000 rpm for 1 minute, then incubated at room temperature for 10 minutes. The reaction was started by addition of substrate buffer (5 μL/well) containing (final concentrations): STK substrate 1-biotin (120 nM) and ATP (1 mM). Assay plates were centrifuged at 1000 rpm for 1 minute, then incubated at room temperature for 60 minutes. The reaction was stopped by addition of detection buffer (Cisbio, 10 μL) containing (final concentrations): STK antibody-cryptate (0.25 nM) and streptavidin-XL665 (7.5 nM). Plates were centrifuged at 1000 rpm for 1 minute, then incubated at 25° C. for 2 hours. HTRF signal was read on an EnVision multimode plate reader […] in HTRF mode. Data were fit to dose-response curves using XLfit (IDBS, Surrey, UK) or Prism (GraphPad Software, La Jolla, Calif., US) to calculate IC50 values for each compound tested.

p-CHK1 (Ser345) = assay: AlphaLISA SureFire Ultra p-CHK1 (Ser345) cellular assay in HT29 cells; format: cell-based; conditions: Homo sapiens, HT-29, 16 h at 37° C.
Method: Example B: AlphaLisa Cellular Assay
Compound activity in cells was measured using an AlphaLISA® SureFire® Ultra™ p-CHK1 (Ser345) assay (Perkin Elmer, catalog no. ALSU-PCHK1-A10K). HT29 cells were cultured in McCoy 5A medium with 10% FBS and 1% penicillin-streptomycin and seeded to 96-well plates (Corning, catalog no. 3599). Compounds were serially diluted in DMSO over a 10-point dose range with 3-fold dilution and to each well containing cells was added compound solution. Plates were centrifuged at 1000 rpm for 30 seconds. Plates were incubated at 37° C. for 16 h. Supernatant was removed by flicking the plate against a paper towel. Wells were washed once with PBS solution. To each well was added freshly prepared lysis buffer and plates were agitated on a plate shaker at 400 rpm for 30 min. The 96-well cell plates were centrifuged at 1500 rpm for 1 minute. From each well was transferred 10 μL of the lysates to a 384-well Optiplate™ (Perkin Elmer, catalog no. 6007290). To each well was added Acceptor Mix (5 μL) and the plates were sealed and wrapped in foil. Plates were agitated on a plate shaker for 2 minutes, then incubated at room temperature for 1 h. To each well was added Donor Mix (5 μL) and the plates were sealed and wrapped in foil. Plates were agitated on a plate shaker for 2 minutes, then incubated at room temperature for 1 h. AlphaLisa signal was read on an EnVision multimode plate reader (Perkin Elmer). Data were fit to dose-response curves using XLfit (IDBS, Surrey, UK) or Prism (GraphPad Software, La Jolla, Calif., US) to calculate IC50 values for each compound tested.

| IC50 [1] | IC50 (p-CHK1 (Ser345)) | SMILES |
| --- | --- | --- |
| ≤ 10 nM | 50 to 100 nM | COc1cc(Cl)cc(O[C@H]2CC[C@H](N)CC2)c1-c1cc(Nc2cnc(C#N)cn2)n[nH]1 [Example 1-21, 5-((5-(2-(((1r,4r)-4-aminocyclohexyl)oxy)-4-chloro-6-methoxyphenyl)-1H-pyrazol-3-yl)amino)pyrazine-2-carbonitrile] |
| 10 to 100 nM | 100 to 500 nM | N#Cc1cnc(Nc2cc(-c3c(F)cccc3O[C@@H]3CC[C@H](N)C3)[nH]n2)cn1 [Example 1-22, 5-((5-(2-(((1R,3S)-3-aminocyclopentyl)oxy)-6-fluorophenyl)-1H-pyrazol-3-yl)amino)pyrazine-2-carbonitrile] |
| 10 to 100 nM | 100 to 500 nM | CCOc1cccc(O[C@@H]2CC[C@H](N)C2)c1-c1cc(Nc2cnc(C#N)cn2)n[nH]1 [Example 1-23, 5-((5-(2-(((1R,3S)-3-aminocyclopentyl)oxy)-6-ethoxyphenyl)-1H-pyrazol-3-yl)amino)pyazine-2-carbonitrile] |
| 10 to 100 nM | 50 to 100 nM | COc1c(F)ccc(O[C@@H]2CC[C@H](N)C2)c1-c1cc(Nc2cnc(C#N)cn2)n[nH]1 [Example 1-26, 5-((5-(6-(((1R,3S)-3-aminocyclopentyl)oxy)-3-fluoro-2-methoxyphenyl)-1H-pyrazol-3-yl)amino)pyrazine-2-carbonitrile] |
| 10 to 100 nM | 100 to 500 nM | COc1ccc(F)c(O[C@@H]2CC[C@H](N)C2)c1-c1cc(Nc2cnc(C#N)cn2)n[nH]1 [Example 1-27, 5-((5-(2-(((1R,3S)-3-aminocyclopentyl)oxy)-3-fluoro-6-methoxyphenyl)-1H-pyrazol-3-yl)amino)pyrazine-2-carbonitrile] |
| ≤ 10 nM | ≤ 50 nM | COc1cc(F)cc(O[C@@H]2CC[C@H](N)C2)c1-c1cc(Nc2cnc(C#N)cn2)n[nH]1 [Example 1-28, 5-((5-(2-(((1R,3S)-3-aminocyclopentyl)oxy)-4-fluoro-6-methoxyphenyl)-1H-pyrazol-3-yl)amino)pyrazine-2-carbonitrile] |
| ≤ 10 nM | 100 to 500 nM | COc1cc(Cl)cc(O[C@@H]2CC[C@H](N)C2)c1-c1cc(Nc2cnc(C#N)cn2)n[nH]1 [Example 1-29, 5-((5-(2-(((1R,3S)-3-aminocyclopentyl)oxy)-4-chloro-6-methoxyphenyl)-1H-pyrazol-3-yl)amino)pyrazine-2-carbonitrile] |
| ≤ 10 nM | 100 to 500 nM | COc1cc(F)c(-c2cc(Nc3cnc(C#N)cn3)n[nH]2)c(O[C@@H]2CC[C@H](N)C2)c1 [Example 1-41, 5-((5-(2-(((1R,3S)-3-aminocyclopentyl)oxy)-6-fluoro-4-methoxyphenyl)-1H-pyrazol-3-yl)amino)pyrazine-2-carbonitrile] |
| ≤ 10 nM | ≤ 50 nM | N#Cc1cnc(Nc2cc(-c3c(F)cccc3O[C@@H]3CC[C@@H](N)C3)[nH]n2)cn1 [Example 1-44, 5-((5-(2-(((1R,3R)-3-aminocyclopentyl)oxy)-6-fluorophenyl)-1H-pyrazol-3-yl)amino)pyrazine-2-carbonitrile] |

More lines, now with the values behind:

| SMILES | IC50 [1] | IC50 (p-CHK1 (Ser345)) |
| --- | --- | --- |
| CCOc1cccc(O[C@H]2CC[C@H](N)CC2)c1-c1cc(Nc2cnc(C#N)cn2)n[nH]1 [Example 1-17, 5-((5-(2-(((1r,4r)-4-aminocyclohexyl)oxy)-6-ethoxyphenyl)-1H-pyrazol-3-yl)amino)pyrazine-2-carbonitrile] | 10 to 100 nM | 500 to 1000 nM |
| N#Cc1cnc(Nc2cc(-c3c(F)cccc3O[C@H]3CC[C@H](N)CC3)[nH]n2)cn1 [Example 1-19, 5-((5-(2-(((1r,4r)-4-aminocyclohexyl)oxy)-6-fluorophenyl)-1H-pyrazol-3-yl)amino)pyrazine-2-carbonitrile] | 10 to 100 nM | 100 to 500 nM |
| COc1c(F)ccc(O[C@H]2CC[C@H](N)CC2)c1-c1cc(Nc2cnc(C#N)cn2)n[nH]1 [Example 1-20, 5-((5-(6-(((1r,4r)-4-aminocyclohexyl)oxy)-3-fluoro-2-methoxyphenyl)-1H-pyrazol-3-yl)amino)pyrazine-2-carbonitrile] | 10 to 100 nM | 100 to 500 nM |
| N#Cc1cnc(Nc2cc(-c3c(OCC4CC4)cccc3O[C@H]3C[C@H](N)C3)[nH]n2)cn1 [Example 1-32, 5-((5-(2-((1r,3r)-3-aminocyclobutoxy)-6-(cyclopropylmethoxy)phenyl)-1H-pyrazol-3-yl)amino)pyrazine-2-carbonitrile] | 10 to 100 nM | 500 to 1000 nM |
| CN[C@H]1C[C@H](Oc2ccccc2-c2cc(Nc3cnc(C#N)cn3)n[nH]2)C1 [Example 1-38, 5-((5-(2-((1r,3r)-3-(methylamino)cyclobutoxy)phenyl)-1H-pyrazol-3-yl)amino)pyrazine-2-carbonitrile] | 10 to 100 nM | 100 to 500 nM |
| COc1cccc(O[C@@H]2CC[C@H](N)C2)c1-c1cc(Nc2cnc(C#N)c(C)n2)n[nH]1 [Example 1-39, 5-((5-(2-(((1R,3S)-3-aminocyclopentyl)oxy)-6-methoxyphenyl)-1H-pyrazol-3-yl)amino)-3-methylpyrazine-2-carbonitrile] | 10 to 100 nM | 500 to 1000 nM |
| Cc1nc(Nc2cc(-c3ccccc3O[C@@H]3CC[C@H](N)C3)[nH]n2)cnc1C#N [Example 1-40, 5-((5-(2-(((1R,3S)-3-aminocyclopentyl)oxy)phenyl)-1H-pyrazol-3-yl)amino)-3-methylpyrazine-2-carbonitrile] | 100 to 500 nM | > 1000 nM |
| CN[C@@H]1CC[C@@H](Oc2ccccc2-c2cc(Nc3cnc(C#N)cn3)n[nH]2)C1 [Example 1-42, 5-((5-(2-(((1R,3R)-3-(methylamino)cyclopentyl)oxy)phenyl)-1H-pyrazol-3-yl)amino)pyrazine-2-carbonitrile] | 10 to 100 nM | 50 to 100 nM |
| CN[C@@H]1CC[C@@H](Oc2cccc(F)c2-c2cc(Nc3cnc(C#N)cn3)n[nH]2)C1 [Example 1-43, 5-((5-(2-fluoro-6-(((1R,3R)-3-(methylamino)cyclopentyl)oxy)phenyl)-1H-pyrazol-3-yl)amino)pyrazine-2-carbonitrile] | 10 to 100 nM | ≤ 50 nM |
| CN[C@H]1CC[C@H](Oc2cccc(OC)c2-c2cc(Nc3cnc(C#N)cn3)n[nH]2)CC1 [Example 1-45, 5-((5-(2-methoxy-6-(((1r,4r)-4-(methylamino)cyclohexyl)oxy)phenyl)-1H-pyrazol-3-yl)amino)pyrazine-2-carbonitrile] | ≤ 10 nM | 50 to 100 nM |
| CN[C@H]1CC[C@@H](Oc2cccc(OC)c2-c2cc(Nc3cnc(C#N)cn3)n[nH]2)C1 [Example 1-46, 5-((5-(2-methoxy-6-(((1R,3S)-3-(methylamino)cyclopentyl)oxy)phenyl)-1H-pyrazol-3-yl)amino)pyrazine-2-carbonitrile] | ≤ 10 nM | ≤ 50 nM |
| COc1cccc(OC2CCC(N)C2C)c1-c1cc(Nc2cnc(C#N)cn2)n[nH]1 (stereo not drawn) [Example 1-47, 5-((5-(2-((3-amino-2-methylcyclopentyl)oxy)-6-methoxyphenyl)-1H-pyrazol-3-yl)amino)pyrazine-2-carbonitrile] | ≤ 10 nM | ≤ 50 nM |
